# Tested on: murine macrophage J774 cell line
# Assay: Cytotoxicity assay on murine macrophages (resazurin, 48 h)
# Format: cell-based
# Conditions: not given
# Description: (§1) A., Madrid, Spain) at 37 °C and 5% CO2 air atmosphere. The assay was carried out according to a previously described method. […] Growth controls and signal-to-noise were also included. Afterward, a volume of 20 μL of 2.5 mM resazurin solution in PBS was added, and plates were placed again in the incubator for another 3 h to evaluate cell viability. The reduction of resazurin was determined by fluorometry as in the promastigote assay. Each concentration was assayed in triplicate. […] All values were expressed as means ± standard error of the mean (S.E.M.). Statistically significant differences between treated and control samples were tested by one-way analysis of variance (ANOVA).
row,Compound,Macrophages CC50
1,EtOH,7.1 ± 0.6 µg/mL

# Same assay, conditions: J774 macrophages vs G. intestinalis; pure flavonoids (Table 4)
row,Compound,SI: selectivity index (CC50/IC50)
1,"COc1cc(O)c(OC)c(O)c1C(=O)/C=C/c1cccc(O)c1 [Compound 2, 2′,4′,3-Trihydroxy-3′,6′-dimethoxychalcone]",3.9
2,"COc1cc(OC)c(C(=O)/C=C/c2ccccc2)c(O)c1O [Compound 12, 2′,3′-dihydroxy-4′,6′-dimethoxychalchone]",3.5
3,"Cc1ncc([N+](=O)[O-])n1CCO [Metronidazole, reference compound]",>233
4,"COc1cc(O)cc(/C=C/C(=O)c2c(O)cc(OC)cc2OC)c1 [Compound 4, 2′,3-Dihydroxy-4′,6′,5-trimethoxychalcone]",233
5,"COc1cccc(C2CC(=O)c3c(OC)cc(OC)cc3O2)c1 (stereo not drawn) [Compound 24, 5,7,3′-trimethoxyflavanone]",2.9
6,"COc1cc(O)cc(/C=C/C(=O)c2c(OC)cc(OC)c(O)c2O)c1 [Compound 11, 2′,3′,5-trihydroxy-4′,6′,3-trimethoxychalcone]",2.2
7,"COc1cc(O)cc(O)c1C(=O)CCc1ccccc1 [Compound 16, uvangoletin]",>5.2
8,"COc1cccc(/C=C/C(=O)c2c(OC)cc(O)c(OC)c2O)c1 [Compound 10, 2′,4′-dihydroxy-3,3′,6′-trimethoxychalcone]",1.4
9,"COc1cc(/C=C/C(=O)c2c(O)cc(O)cc2OC)ccc1O [Compound 14, 2′,4′,4-trihydroxy-3,6′-dimethoxychalchone]",1.6
10,"COc1cc(O)c2c(c1)O[C@H](c1ccc(O)cc1)CC2=O [Compound 23, sakuranetin]",3.5
11,"COc1cc(O)cc(O)c1C(=O)/C=C/c1cccc(O)c1 [Compound 1, 2′,4′,3-Trihydroxy-6′-methoxychalcone]",1.8

# Tested on: not listed separately
# Assay: as above
# Format: cell-based
# Conditions: mouse, J774 macrophage cell line; J774 cell line, 48 h; extract, fractions and sub-fractions
# Description: as §1
row,Compound,CC50 at 48 h
1,"Cc1ncc([N+](=O)[O-])n1CCO [Metronidazole, reference compound]",233 µg/mL

# Same assay, conditions: mouse, J774 macrophage cell line; J774 cell line, 48 h; pure flavonoids
row,Compound,CC50 at 48 h
1,"COc1cc(O)c(OC)c(O)c1C(=O)/C=C/c1cccc(O)c1 [Compound 2, 2′,4′,3-Trihydroxy-3′,6′-dimethoxychalcone]",184 ± 2.6 µM
2,"COc1cc(OC)c(C(=O)/C=C/c2ccccc2)c(O)c1O [Compound 12, 2′,3′-dihydroxy-4′,6′-dimethoxychalchone]",25.3 ± 0.4 µM
3,"Cc1ncc([N+](=O)[O-])n1CCO [Metronidazole, reference compound]",> 584 µM
4,"COc1cc(O)cc(/C=C/C(=O)c2c(O)cc(OC)cc2OC)c1 [Compound 4, 2′,3-Dihydroxy-4′,6′,5-trimethoxychalcone]",14.2 ± 0.2 µM
5,"COc1cccc(C2CC(=O)c3c(OC)cc(OC)cc3O2)c1 (stereo not drawn) [Compound 24, 5,7,3′-trimethoxyflavanone]",144 ± 2.3 µM
6,"COc1cc(O)cc(/C=C/C(=O)c2c(OC)cc(OC)c(O)c2O)c1 [Compound 11, 2′,3′,5-trihydroxy-4′,6′,3-trimethoxychalcone]",48.5 ± 0.8 µM
7,"COc1cc(O)cc(O)c1C(=O)CCc1ccccc1 [Compound 16, uvangoletin]",> 367 µM
8,"COc1cccc(/C=C/C(=O)c2c(O)cc(OC)cc2OC)c1 [Compound 9, 2′-hydroxy-3,4′,6′-trimethoxychalchone]",22.6 ± 0.5 µM
9,"COc1cccc(/C=C/C(=O)c2c(OC)cc(O)c(OC)c2O)c1 [Compound 10, 2′,4′-dihydroxy-3,3′,6′-trimethoxychalcone]",44.2 ± 0.7 µM
10,"COc1cc(/C=C/C(=O)c2c(O)cc(O)cc2OC)ccc1O [Compound 14, 2′,4′,4-trihydroxy-3,6′-dimethoxychalchone]",16.5 ± 0.03 µM
11,"COc1cc(O)cc(O)c1C(=O)/C=C/c1cccc(O)c1 [Compound 1, 2′,4′,3-Trihydroxy-6′-methoxychalcone]",12.9 ± 0.2 µM
12,"COc1cc(O)cc(/C=C/C(=O)c2c(O)cc(O)cc2OC)c1 [Compound 3, 2′,4′,3-Trihydroxy-6′,5-dimethoxychalcone]",12 ± 0.1 µM
13,"COc1cccc(/C=C/C(=O)c2c(O)cc(O)cc2OC)c1 [Compound 7, 2′,4′-dihydroxy-3,6′-dimethoxychalchone]",15.7 ± 0.2 µM

# Same assay, conditions: mouse; J774 cell line, 48 h; pure flavonoids
row,Compound,CC50 at 48 h
1,"COc1cc(O)cc(O)c1C(=O)/C=C/c1ccccc1 [Compound 8, 2′,4′-dihydroxy-6′-methoxychalchone]",37.8 ± 1.1 µM
2,"COc1cc(O)c2c(c1)O[C@H](c1ccc(O)cc1)CC2=O [Compound 23, sakuranetin]",184 ± 2.3 µM

# Tested on: Giardia intestinalis trophozoites
# Assay: In vitro assay on trophozoite form of Giardia intestinalis (resazurin, 48 h)
# Format: cell-based
# Conditions: Giardia duodenalis; trophozoites, 48 h; extract, fractions and sub-fractions of Piper delineatum leaves; read-out: G. intestinalis IC50
# Description: Trophozoites of Giardia (strain ATCC® 203333) were grown in modified TYI-S-33 medium at pH 7.0, supplemented with 10% heat-inactivated fetal calf serum and 0.5 g bovine bile (Sigma-Aldrich, St Louis, MO, USA), in 20 mL screw-cap culture vials. The assay was carried out according to a previously described method. Detachment of trophozoites for preparation of inoculant was achieved by chilling the cultures on ice for 20 min. Trophozoites (5 × 10^4 parasites/well) were cultured in 96-well plastic plates (Sarstedt, Nümbrecht, Germany). Compounds were dissolved in DMSO. […] To evaluate cell viability, the fluorescence intensity (535 nm-excitation wavelength- and 590 nm-emission wavelength) was determined with a fluorimeter Infinite 200 (Tecan i-Control, Tecan Ibérica Instrumentation S.L., Barcelona, Spain) to calculate the growth inhibition rate (%). All tests were carried out in triplicate. Metronidazole was used as a reference drug. […] All values were expressed as means ± standard error of the mean (S.E.M.). Statistically significant differences between treated and control samples were tested by one-way analysis of variance (ANOVA).
row,Compound,IC50
1,"Cc1ncc([N+](=O)[O-])n1CCO [Metronidazole, reference compound]",0.4 ± 0.1 µg/mL

# Same assay, conditions: Giardia duodenalis; trophozoites, 48 h; pure flavonoids; read-out: G. intestinalis IC50
row,Compound,IC50
1,"COc1cc(O)cc(O)c1C(=O)/C=C/c1ccccc1 [Compound 8, 2′,4′-dihydroxy-6′-methoxychalchone]",9.6 ± 0.2 µM
2,"COc1cc(O)c(OC)c(O)c1C(=O)/C=C/c1cccc(O)c1 [Compound 2, 2′,4′,3-Trihydroxy-3′,6′-dimethoxychalcone]",47.7 ± 1.2 µM
3,"COc1cc(OC)c(C(=O)/C=C/c2ccccc2)c(O)c1O [Compound 12, 2′,3′-dihydroxy-4′,6′-dimethoxychalchone]",7.3 ± 0.6 µM
4,"Cc1ncc([N+](=O)[O-])n1CCO [Metronidazole, reference compound]",2.5 ± 0.1 µM
5,"COc1cc(O)cc(/C=C/C(=O)c2c(O)cc(OC)cc2OC)c1 [Compound 4, 2′,3-Dihydroxy-4′,6′,5-trimethoxychalcone]",0.061 ± 0.001 µM
6,"COc1cccc(C2CC(=O)c3c(OC)cc(OC)cc3O2)c1 (stereo not drawn) [Compound 24, 5,7,3′-trimethoxyflavanone]",49.3 ± 0.9 µM
7,"COc1cc(O)cc(/C=C/C(=O)c2c(OC)cc(OC)c(O)c2O)c1 [Compound 11, 2′,3′,5-trihydroxy-4′,6′,3-trimethoxychalcone]",22.5 ± 0.8 µM
8,"COc1cc(O)cc(O)c1C(=O)CCc1ccccc1 [Compound 16, uvangoletin]",70.5 ± 0.3 µM
9,"COc1cccc(/C=C/C(=O)c2c(O)cc(OC)cc2OC)c1 [Compound 9, 2′-hydroxy-3,4′,6′-trimethoxychalchone]",10.8 ± 0.1 µM
10,"COc1cccc(/C=C/C(=O)c2c(OC)cc(O)c(OC)c2O)c1 [Compound 10, 2′,4′-dihydroxy-3,3′,6′-trimethoxychalcone]",32.7 ± 1.3 µM
11,"COc1cc(/C=C/C(=O)c2c(O)cc(O)cc2OC)ccc1O [Compound 14, 2′,4′,4-trihydroxy-3,6′-dimethoxychalchone]",10.4 ± 0.2 µM
12,"COc1cc(O)c2c(c1)O[C@H](c1ccc(O)cc1)CC2=O [Compound 23, sakuranetin]",52.4 ± 2.1 µM
13,"COc1cc(O)cc(O)c1C(=O)/C=C/c1cccc(O)c1 [Compound 1, 2′,4′,3-Trihydroxy-6′-methoxychalcone]",7 ± 0.1 µM
14,"COc1cc(O)cc(/C=C/C(=O)c2c(O)cc(O)cc2OC)c1 [Compound 3, 2′,4′,3-Trihydroxy-6′,5-dimethoxychalcone]",6 ± 0.3 µM
15,"COc1cccc(/C=C/C(=O)c2c(O)cc(O)cc2OC)c1 [Compound 7, 2′,4′-dihydroxy-3,6′-dimethoxychalchone]",4.7 ± 0.1 µM

# Same assay, conditions: IC50 ratio to the reference drug metronidazole
row,Compound,Antiparasitic potency relative to metronidazole
1,"COc1cc(O)cc(/C=C/C(=O)c2c(O)cc(OC)cc2OC)c1 [Compound 4, 2′,3-Dihydroxy-4′,6′,5-trimethoxychalcone]",41 fold

# From paper PMC9695682, “Flavonoids from Piper Species as Promising Antiprotozoal Agents against Giardia intestinalis: Structure-Activity Relationship and Drug-Likeness Studies” (Pharmaceuticals, 2022)
